Data on 21 molecules can be found in US10676479B2, “Imidazolepyridine compounds and uses thereof” (Novartis AG, priority 2016, dated 2020).

The structures appear in SMILES notation.

One assay concerns the target EED (1-441)-His protein (Homo sapiens (Human), UniProt O75530). As to the kind of experiment: EED-H3K27Me3 peptide competition binding assay by AlphaScreen. Particulars: EED Alphascreen binding Qualified assay. The method, then: Then 4 μL of detection beads mix was added to the plate and incubate in the dark at the rt for 1 h. The final concentration of donor and acceptor beads was 10 μg/mL for each. […] The data were then fit to a dose response equation using the program Helios (Novartis) to get the IC50 values. […] Sebaugh, J. […] Each compound was counter screened to determine if it interfered with the AlphaScreen beads. […] The plates were then incubated for 1 h at rt in dark before being read on EnVison.

The subject of assay [1] is H3K27 methylation in G401 cell. In words: ELISA (H3K27 methylation) assay. The class given is cell-based. The following applies: Homo sapiens, G-401, ELISA Qualified assay, 48 h, read-out: (c) IC50. Here is the method:
ELISA (H3K27 Methylation) Assay
Representative compounds of the present invention were serially and separately diluted 3-fold in DMSO to obtain a total of eight or twelve concentrations. Then the compounds were added to G401 cell cultured in 384-well plate at 1:500 dilution to obtain the highest concentration of 20 μM. The cells were further cultured for 48 h before ELISA procedure.
ELISA protocol: Cell lysates were transferred to the wells of a 384-well plate and the final volume was adjusted to 50 μL per well with PBS. The plate was sealed, centrifuged at 2,000 rpm for 2 min and incubated at 4° C. for about 16 h. The plate was washed with TBST buffer (1×TBS (10×TBS: 24.2 g Tris (Sigma, T6066), 80 g NaCl (Sigma, S3014) to 1 L of water and adjust pH to 7.6 with HCl) with 0.1% Tween-20). Blocking buffer (TBST, 5% BSA; 50 μL per well) was added and the plate was incubated for 1 h at rt. The blocking buffer was removed and primary antibody was added (30 μL per well). […] The primary antibody was incubated in the plate at rt for 1 h. The wells were washed with TBST and incubated with secondary antibody for 1 h at rt. […] After 1 h of incubation at rt, the wells were washed with TBST. […] The signal was read using a PerkinElmer Envision Reader. The H3K27 methylation readouts were normalized using H3 signal and then percentage inhibition was calculated against the samples treated with DMSO. The data were then fit to a dose response curve using the program Helios to get the IC50 values of the test compound.
(In general: ELISA stands for enzyme-linked immunosorbent assay.)

Assay [2] deals with wild type PRC2 (wtPRC2) complex (Homo sapiens (Human), UniProt O75530). In words: EED LC-MS assay. The class given is biochemical. The following applies: EED LC-MS Qualified assay; read-out: (b) IC50. The method, then:
EED LC-MS Assay Representative compounds of the present invention were serially and separately diluted 3-fold in DMSO to obtain a total of eight or twelve concentrations. […] A 6 μL solution of 3 μM of the peptide substrate H3K27Me0 (histone H3[21-44]-biotin) in reaction buffer was added to initiate each reaction. […] The data were then fit to a dose response equation using the program Helios to get the IC50 values of the test compound.

EED (1-441)-His protein, sequence (O75530 whole entry): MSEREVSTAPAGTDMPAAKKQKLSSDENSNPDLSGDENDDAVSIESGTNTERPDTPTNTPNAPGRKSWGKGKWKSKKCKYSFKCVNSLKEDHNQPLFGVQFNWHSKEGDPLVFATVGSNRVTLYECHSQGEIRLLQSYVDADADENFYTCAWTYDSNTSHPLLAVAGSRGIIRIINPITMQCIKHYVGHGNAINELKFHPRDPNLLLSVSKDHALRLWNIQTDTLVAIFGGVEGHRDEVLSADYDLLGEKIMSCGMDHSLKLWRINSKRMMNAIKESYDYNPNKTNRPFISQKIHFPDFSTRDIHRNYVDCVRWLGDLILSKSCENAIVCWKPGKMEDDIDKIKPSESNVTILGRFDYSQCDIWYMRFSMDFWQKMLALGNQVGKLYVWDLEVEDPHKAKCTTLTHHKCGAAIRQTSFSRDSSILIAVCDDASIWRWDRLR
wild type PRC2 (wtPRC2) complex, sequence (O75530 whole entry): as above
wild type PRC2 (wtPRC2) complex, sequence (Q15910 whole entry partner): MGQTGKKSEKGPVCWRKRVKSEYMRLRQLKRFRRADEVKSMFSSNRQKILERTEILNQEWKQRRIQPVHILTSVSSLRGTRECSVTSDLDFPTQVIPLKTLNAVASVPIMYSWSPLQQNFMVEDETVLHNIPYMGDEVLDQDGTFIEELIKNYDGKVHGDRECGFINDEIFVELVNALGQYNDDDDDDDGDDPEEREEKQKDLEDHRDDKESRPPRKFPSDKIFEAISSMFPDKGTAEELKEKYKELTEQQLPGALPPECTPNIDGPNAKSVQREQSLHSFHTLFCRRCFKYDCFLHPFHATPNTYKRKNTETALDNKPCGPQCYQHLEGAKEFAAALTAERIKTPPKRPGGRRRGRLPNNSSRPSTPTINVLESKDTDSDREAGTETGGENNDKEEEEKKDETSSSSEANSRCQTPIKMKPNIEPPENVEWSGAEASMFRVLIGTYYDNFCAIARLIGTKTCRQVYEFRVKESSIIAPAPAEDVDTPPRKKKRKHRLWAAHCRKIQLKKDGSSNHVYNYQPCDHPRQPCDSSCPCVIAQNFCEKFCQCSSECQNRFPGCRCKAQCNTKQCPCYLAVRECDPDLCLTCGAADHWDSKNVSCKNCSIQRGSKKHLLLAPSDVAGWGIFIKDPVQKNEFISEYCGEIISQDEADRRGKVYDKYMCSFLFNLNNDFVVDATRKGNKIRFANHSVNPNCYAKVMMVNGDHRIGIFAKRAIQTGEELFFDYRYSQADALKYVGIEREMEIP
wild type PRC2 (wtPRC2) complex, sequence (Q15022 whole entry partner): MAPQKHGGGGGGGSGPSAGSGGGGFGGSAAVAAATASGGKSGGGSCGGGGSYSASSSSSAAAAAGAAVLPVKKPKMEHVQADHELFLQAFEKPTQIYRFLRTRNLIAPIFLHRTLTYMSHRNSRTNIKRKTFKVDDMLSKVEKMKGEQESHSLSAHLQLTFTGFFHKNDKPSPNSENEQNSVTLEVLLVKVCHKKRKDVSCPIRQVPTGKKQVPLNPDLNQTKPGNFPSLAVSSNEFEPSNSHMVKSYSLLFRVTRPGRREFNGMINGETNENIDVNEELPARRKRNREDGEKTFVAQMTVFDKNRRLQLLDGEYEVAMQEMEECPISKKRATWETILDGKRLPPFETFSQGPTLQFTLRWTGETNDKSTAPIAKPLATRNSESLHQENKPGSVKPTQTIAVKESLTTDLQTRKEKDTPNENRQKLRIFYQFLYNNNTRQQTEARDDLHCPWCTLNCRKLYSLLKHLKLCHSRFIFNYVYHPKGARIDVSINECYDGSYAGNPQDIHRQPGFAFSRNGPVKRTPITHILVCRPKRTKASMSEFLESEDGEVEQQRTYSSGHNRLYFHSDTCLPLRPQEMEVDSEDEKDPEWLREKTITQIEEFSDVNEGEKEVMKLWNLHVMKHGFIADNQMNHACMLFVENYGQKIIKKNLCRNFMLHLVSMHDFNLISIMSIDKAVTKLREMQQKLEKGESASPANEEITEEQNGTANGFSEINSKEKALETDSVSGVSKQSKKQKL

For the molecule `Cc1ncc(-c2cnc(NCc3c(F)ccc4c3CCO4)n3cncc23)c(C)n1` [Example 1, 8-(2,4-Dimethylpyrimidin-5-yl)-N-((5-fluoro-2,3-dihydrobenzofuran-4-yl)methyl)imidazo[1,5-c]pyrimidin-5-amine], the values for the IC50 (at EED (1-441)-His protein; in assay [1]; in assay [2]) were 7.2 nM, 24.8 nM and 13.2 nM, respectively.

`CNC(=O)c1ncn2c(NCc3c(F)ccc4c3CCO4)ncc(-c3cccnc3C)c12` [Example 2, 5-(((5-Fluoro-2,3-dihydrobenzofuran-4-yl)methyl)amino)-N-methyl-8-(2-methylpyridin-3-yl)imidazo[1,5-c]pyrimidine-1-carboxamide]: the values for the IC50 (at EED (1-441)-His protein; in assay [1]; in assay [2]) were 12.3 nM, 12.6 nM and 26.7 nM, respectively.

Turning to `Cc1ncc(-c2cnc(NCc3c(F)ccc4c3CCO4)n3cnc(C#N)c23)c(C)n1` [Example 3, 8-(2,4-dimethylpyrimidin-5-yl)-5-(((5-fluoro-2,3-dihydrobenzofuran-4-yl)methyl)amino)imidazo[1,5-c]pyrimidine-1-carbonitrile], the IC50 (usually the concentration at which inhibition is half-maximal) worked out at 6.8 nM at EED (1-441)-His protein, 13.2 nM in assay [1] and 13.7 nM in assay [2].

Turning to `Cc1ncn2c(NCc3c(F)ccc4c3CCO4)ncc(-c3ccc(S(C)(=O)=O)cc3)c12` [Example 4, N-((5-fluoro-2,3-dihydrobenzofuran-4-yl)methyl)-1-methyl-8-(4-(methylsulfonyl)phenyl)imidazo[1,5-c]pyrimidin-5-amine], the IC50 turned out to be 15.6 nM at EED (1-441)-His protein, 32.5 nM in assay [1] and 29.5 nM in assay [2].

As to `Cc1cc(-c2cnc(NCc3c(F)ccc4c3CCO4)n3cnc(C#N)c23)n(C)n1` [Example 5, 8-(1,3-Dimethyl-1H-pyrazol-5-yl)-5-(((5-fluoro-2,3-dihydrobenzofuran-4-yl)methyl)amino)imidazo[1,5-c]pyrimidine-1-carbonitrile], the half-maximal inhibitory concentration (IC50) is 3.5 nM at EED (1-441)-His protein, 3.2 nM in assay [1] and 8.9 nM in assay [2].

For the molecule `Cc1cn(-c2cnc(NCc3c(F)ccc4c3CCO4)n3cnc(C#N)c23)cn1` [Example 6, 5-(((5-Fluoro-2,3-dihydrobenzofuran-4-yl)methyl)amino)-8-(4-methyl-1H-imidazol-1-yl)imidazo[1,5-c]pyrimidine-1-carbonitrile], the results for the IC50 (at EED (1-441)-His protein; in assay [1]; in assay [2]) were 4.2 nM, 3.1 nM and 12.5 nM, respectively.

As to `CCOC(=O)c1ncn2c(NCc3cc(OC)c(F)cc3F)ncc(-c3ccc(S(C)(=O)=O)cc3)c12` [Example 7, Ethyl 5-((2,4-difluoro-5-methoxybenzyl)amino)-8-(4-(methylsulfonyl)phenyl)imidazo[1,5-c]pyrimidine-1-carboxylate], the IC50 on EED (1-441)-His protein was 16.8 nM; in assay [1], 236 nM; in assay [2] it was 16.8 nM.

With `Cc1ncc(-c2cnc(NCc3c(F)ccc4c3CCO4)n3cnc(CO)c23)c(C)n1` [Example 8, (8-(2,4-Dimethylpyrimidin-5-yl)-5-(((5-fluoro-2,3-dihydrobenzofuran-4-yl)methyl)amino)imidazo[1,5-c]pyrimidin-1-yl)methanol], the IC50 on EED (1-441)-His protein amounted to 11.6 nM; in assay [1] it was 30.4 nM; in assay [2] it was 18.6 nM.

For `Cc1ncc(-c2cnc(NCc3c(F)ccc4c3CCO4)n3cnc(Cl)c23)c(C)n1` [Example 9, 1-chloro-8-(2,4-dimethylpyrimidin-5-yl)-N-((5-fluoro-2,3-dihydrobenzofuran-4-yl)methyl)imidazo[1,5-c]pyrimidin-5-amine], the IC50 worked out at 10.4 nM at EED (1-441)-His protein, 10.9 nM in assay [1] and 11 nM in assay [2].

As for `Cc1ncc(-c2cnc(NCc3c(F)ccc4c3CCO4)n3cnc(-c4ncco4)c23)c(C)n1` [Example 11, 8-(2,4-dimethylpyrimidin-5-yl)-N-((5-fluoro-2,3-dihydrobenzofuran-4-yl)methyl)-1-(oxazol-2-yl)imidazo[1,5-c]pyrimidin-5-amine], the IC50 at EED (1-441)-His protein turned out to be 12.6 nM; in assay [1], 6.9 nM; in assay [2], 17.1 nM.

Turning to `C#Cc1ncn2c(NCc3c(F)ccc4c3CCO4)ncc(-c3cccnc3C)c12` [Example 12, 1-Ethynyl-N-((5-fluoro-2,3-dihydrobenzofuran-4-yl)methyl)-8-(2-methylpyridin-3-yl)imidazo[1,5-c]pyrimidin-5-amine], the IC50 worked out at 5.4 nM at EED (1-441)-His protein, 48.9 nM in assay [1] and 6.8 nM in assay [2].

As for `CS(=O)(=O)c1ncn2c(NCc3c(F)ccc4c3CCO4)ncc(-c3cccnc3C(F)F)c12` [Example 13, 8-(2-(Difluoromethyl)pyridin-3-yl)-N-((5-fluoro-2,3-dihydrobenzofuran-4-yl)methyl)-1-(methylsulfonyl)imidazo[1,5-c]pyrimidin-5-amine], the values for the IC50 (on EED (1-441)-His protein; in assay [1]; in assay [2]) were 3.7 nM, 2.3 nM and 7.7 nM, respectively.

On to `Cc1ncc(-c2cnc(NCc3c(F)ccc4c3CCO4)n3cnc([S+]([O-])c4ccccc4)c23)c(C)n1` (stereo not shown) [Example 14, 8-(2,4-Dimethylpyrimidin-5-yl)-N-((5-fluoro-2,3-dihydrobenzofuran-4-yl)methyl)-1-(phenylsulfinyl)imidazo[1,5-c]pyrimidin-5-amine], for which the IC50 at EED (1-441)-His protein amounted to 10.4 nM; in assay [1], 4.9 nM; in assay [2] it was 23.4 nM.

On to `Cc1ncc(-c2cnc(NCc3c(F)ccc4c3CCO4)n3cnc(S(=O)(=O)c4ccccc4)c23)c(C)n1` [Example 15, 8-(2,4-dimethylpyrimidin-5-yl)-N-((5-fluoro-2,3-dihydrobenzofuran-4-yl)methyl)-1-(phenylsulfonyl)imidazo[1,5-c]pyrimidin-5-amine], for which the values for the IC50 (on EED (1-441)-His protein; in assay [1]; in assay [2]) were 15.2 nM, 7.8 nM and 29.8 nM, respectively.

For `CC(=O)c1ncn2c(NCc3c(F)ccc4c3CCO4)ncc(-c3cnc(C)nc3C)c12` [Example 16, 1-(8-(2,4-Dimethylpyrimidin-5-yl)-5-(((5-fluoro-2,3-dihydrobenzofuran-4-yl)methyl)amino)-imidazo[1,5-c]pyrimidin-1-yl)ethan-1-one], the IC50 on EED (1-441)-His protein is 9.1 nM; in assay [1], 7.6 nM; in assay [2], 17.5 nM.

For the molecule `CN(C)Cc1ccc(-c2cnc(NCc3c(F)ccc4c3CCO4)n3cncc23)cc1` [Example 17, 8-(4-((dimethylamino)methyl)phenyl)-N-((5-fluoro-2,3-dihydrobenzofuran-4-yl)methyl)imidazo[1,5-c]pyrimidin-5-amine], the IC50 at EED (1-441)-His protein is 12.6 nM; in assay [1], 32.1 nM; in assay [2] it was 25.7 nM.

Consider `COc1cccc(F)c1CNc1ncc(-c2ccc(CN(C)C)cc2)c2cncn12` [Example 68, 8-(4-((dimethylamino)methyl)phenyl)-N-(2-fluoro-6-methoxybenzyl)imidazo[1,5-c]pyrimidin-5-amine], for which the IC50 on EED (1-441)-His protein turned out to be 201 nM; in assay [2] it was 246 nM.

`CCN1CCN(c2ccc(-c3cnc(NCc4c(F)ccc5c4CCO5)n4cnc(C#N)c34)cn2)CC1` [Example 81, 8-(6-(4-ethylpiperazin-1-yl)pyridin-3-yl)-5-(((5-fluoro-2,3-dihydrobenzofuran-4-yl)methyl)amino)imidazo[1,5-c]pyrimidine-1-carbonitrile]: the IC50 in assay [1] was 14.8 nM; in assay [2] it was 35.1 nM.

Consider `CCOC(=O)c1ncn2c(NCc3c(F)ccc4c3CCO4)ncc(-c3cccnc3C)c12` [Example 95, ethyl 5-(((5-fluoro-2,3-dihydrobenzofuran-4-yl)methyl)amino)-8-(2-methylpyridin-3-yl)imidazo[1,5-c]pyrimidine-1-carboxylate], for which the IC50 at EED (1-441)-His protein is 5.5 nM; in assay [1], 2 nM.

With `Cc1ncccc1-c1cnc(NCc2c(F)ccc3c2CCO3)n2cnc(C(=O)NC3COC3)c12` [Example 106, 5-(((5-fluoro-2,3-dihydrobenzofuran-4-yl)methyl)amino)-8-(2-methylpyridin-3-yl)-N-(oxetan-3-yl)imidazo[1,5-c]pyrimidine-1-carboxamide], the IC50 turned out to be 10.9 nM in assay [1] and 16.5 nM in assay [2].

`CS(=O)(=O)c1ccc(-c2cnc(NCc3c(F)ccc4c3CCO4)n3cnc(-c4ccccc4)c23)cc1` [Example 110, N-((5-fluoro-2,3-dihydrobenzofuran-4-yl)methyl)-8-(4-(methylsulfonyl)phenyl)-1-phenylimidazo[1,5-c]pyrimidin-5-amine]: the IC50 was determined as 72.2 nM in assay [1] and 9.4 nM in assay [2].
